# Read-outs that look alike come from different tables or passages of the source.
# Tests used:
# Type in all cases: cell-based
# [1] = system: Bacillus subtilis DSM10; assay: MIC serial dilution assay; parameters: key: -: no inhibition observed under test conditions; settings: highest concentration 67 or 100 µg/mL
# Description: (§1) The minimum inhibitory concentration (MIC) for each compound was ascertained in a serial dilution assay in 96-well microtiter plates, as previously published by Kuhnert et al., using YM media for yeasts and filamentous fungi and BD^TM Difco™ Mueller Hinton Broth for bacteria.
# [2] = system: mouse fibroblast cell line L929; assay: In vitro cytotoxicity assay; settings: 120 h, 6 × 10^3 cells/well, treated over five days
# Protocol: (§2) In vitro cytotoxicity assay was performed as described by Richter et al. against the mouse fibroblast cell line L929 and the cervix carcinoma cell line KB3.1.
# [3] = system: cervix carcinoma cell line KB3.1; assay: In vitro cytotoxicity assay; settings: Homo sapiens, KB 3-1, 120 h, 6 × 10^3 cells/well, treated over five days
# Protocol: as §2
# [4] = system: Rhodotorula glutinis DSM10134; assay: MIC serial dilution assay; parameters: key: -: no inhibition observed under test conditions; settings: highest concentration 67 or 100 µg/mL
# Description: as §1
# [5] = system: Mucor plumbeus MUCL49355; assay: MIC serial dilution assay; parameters: key: -: no inhibition observed under test conditions; settings: highest concentration 67 or 100 µg/mL
# Description: as §1
# [6] = system: Mucor hiemalis DSM2656; assay: MIC serial dilution assay; parameters: key: -: no inhibition observed under test conditions; settings: highest concentration 67 or 100 µg/mL
# Description: as §1
# [7] = system: Micrococcus luteus DSM1790; assay: MIC serial dilution assay; parameters: key: -: no inhibition observed under test conditions; settings: highest concentration 67 or 100 µg/mL
# Description: as §1
# [8] = system: Candida tenuis MUCL29892; assay: MIC serial dilution assay; parameters: key: -: no inhibition observed under test conditions; settings: highest concentration 67 or 100 µg/mL
# Description: as §1
# [9] = system: Candida albicans DSM1665; assay: MIC serial dilution assay; parameters: key: -: no inhibition observed under test conditions; settings: highest concentration 67 or 100 µg/mL
# Description: as §1
# [10] = system: Pichia anomala DSM6766; assay: MIC serial dilution assay; parameters: key: -: no inhibition observed under test conditions; settings: highest concentration 67 or 100 µg/mL
# Description: as §1
# [11] = system: Staphylococcus aureus DSM346; assay: MIC serial dilution assay; parameters: key: -: no inhibition observed under test conditions; settings: highest concentration 67 or 100 µg/mL
# Description: as §1
# [12] = system: Huh7.5 Fluc cells; assay: Cell viability in HCV assay (firefly luciferase); settings: at 20 ng/µL
# Protocol: (§3) Figure 4 Antiviral activity of 4-hydroxypleurogrisin (11). NC-Negative control, EGCG-Positive control. HCV assay was performed in triplicates and is presented as the mean ± standard deviation. The asterisk indicates statistically significant differences (* p ≤ 0.05, ** p ≤ 0.01, *** p ≤ 0.001). Huh-7.5 cells were inoculated with RLuc-Jc1 reporter viruses in the presence of 4-hydroxypleurogrisein. The inoculum was removed 4 h later and monolayers were washed three times with PBS and overlaid with fresh medium containing no inhibitors. Infected cells were lysed three days later, and reporter virus infection was determined by renilla luciferase activity (top). The cell viability was measured by determination of firefly luciferase (bottom), which is stably expressed in the target cells.
# This assay was carried out as described previously by Mulwa et al.. Huh7.5 cells stably expressing Firefly luciferase (Huh7.5 Fluc) were cultured in Dulbecco’s modified minimum essential medium (DMEM, Life Technologies, Darmstadt, Germany) containing 2 mM L glutamine, 1 × minimum essential medium nonessential amino acids (MEM NEAA, Life Technologies), 100 μg/mL streptomycin, 100 IU/mL penicillin (Life Technologies), 5 μg/mL blasticidin and 10% fetal bovine serum. Cells were maintained in a 37 °C environment with 5% CO2 supply. […]
# [13] = system: hepatitis C virus (HCV); assay: Inhibitory effects on HCV infectivity (Renilla luciferase reporter virus in Huh-7.5 cells)
# Protocol: as §3
# This assay was carried out as described previously by Mulwa et al.. Huh7.5 cells stably expressing Firefly luciferase (Huh7.5 Fluc) were cultured in Dulbecco’s modified minimum essential medium (DMEM, Life Technologies, Darmstadt, Germany) containing 2 mM L glutamine, 1 × minimum essential medium nonessential amino acids (MEM NEAA, Life Technologies), 100 μg/mL streptomycin, 100 IU/mL penicillin (Life Technologies), 5 μg/mL blasticidin and 10% fetal bovine serum. Cells were maintained in a 37 °C environment with 5% CO2 supply. Cells were infected with Jc1-derived Renilla reporter viruses in the presence or absence of compounds as described previously. Infected cells were lysed and then frozen at −80 °C for 1 h following measurements of Renilla and Firefly luciferase activities on a Berthold Technologies Centro XS3 Microplate Luminometer (Bad Wildbad, Germany) as indicators of viral genome replication and cell viability, respectively.
compound,measurement,setting,value
Penicillin [reference compound],MIC,[1],Penicillin (6.3) µg/mL
"C[C@@H]1CO[C@@H]2c3c(O)ccc(O)c3C[C@H]3[C@H](C(=O)O)CC[C@H]4[C@@H]1CC[C@@]243 [Compound 7, Leucopleurotinic acid]",IC50,[2],17 µg/mL
same,IC50,[3],20 µg/mL
same,MIC,[4],-
same,MIC,[5],-
same,MIC,[6],-
same,MIC,[7],-
same,MIC,[8],-
same,MIC,[9],-
same,MIC,[10],-
same,MIC,[11],-
same,MIC,[1],-
"C[C@H](CO)[C@H]1CC[C@]23C(=O)c4c(O)ccc(O)c4C(=O)[C@H]2[C@H](C(=O)O)CC[C@@H]13 [Compound 10, Di-oxo-leucopleurotinic acid]",IC50,[2],22 µg/mL
same,IC50,[3],22 µg/mL
same,MIC,[4],-
same,MIC,[5],-
same,MIC,[6],-
same,MIC,[7],-
same,MIC,[8],-
same,MIC,[9],-
same,MIC,[10],-
same,MIC,[11],-
same,MIC,[1]; read-out: MIC,100 µg/mL
"C[C@@H]1CO[C@@H]2c3c(O)ccc(O)c3C(=O)[C@H]3[C@H](C(=O)O)CC[C@H]4[C@@H]1CC[C@@]243 [Compound 8, 14-oxo-leucopleuotinic acid]",IC50,[2],22 µg/mL
same,IC50,[3],22 µg/mL
same,MIC,[4],-
same,MIC,[5],-
same,MIC,[6],-
same,MIC,[7],-
same,MIC,[8],-
same,MIC,[9],-
same,MIC,[10],-
same,MIC,[11],-
same,MIC,[1]; read-out: MIC,50 µg/mL
"C[C@@H]1[C@H](O)[C@@H](C)/C=C/C=C/CC/C=C/C=C/C=C/C=C/C(O[C@H]2O[C@H](C)[C@@H](O)[C@H](N)[C@@H]2O)CC2O[C@](O)(CC(O)C(O)CCC(O)CC(O)CC(O)CC(=O)O[C@H]1C)CC(O)C2C(=O)O (stereo partly drawn) [Nystatin, reference compound]",MIC,[4],Nystatin (16.7) µg/mL
same,MIC,[5],Nystatin (12.5) µg/mL
same,MIC,[6],Nystatin (16.7) µg/mL
same,MIC,[8],Nystatin (12.5) µg/mL
same,MIC,[9],Nystatin (16.7) µg/mL
same,MIC,[10],Nystatin (16.7) µg/mL
"CC(C)(O)C1CCC23CC4=C(CC2C(O)(CO)CCC13)C(=O)C=CC4=O (stereo not drawn) [Compound 11, 4-Hydroxypleurogrisein]",IC50,[2],6.9 µg/mL
same,IC50,[3],7.5 µg/mL
same,"cytotoxic effects (cell viability, firefly luciferase)",[12],cytotoxic effects were noted
same,MIC,[4],-
same,MIC,[5],-
same,MIC,[6],-
same,MIC,[7]; read-out: MIC,66.7 µg/mL
same,MIC,[8],-
same,MIC,[9],-
same,MIC,[10],-
same,MIC,[11]; read-out: MIC,33.3 µg/mL
same,MIC,[1]; read-out: MIC,50 µg/mL
same,IC50,"[13]; Hepatitis C virus, Huh7.5, read-out: IC50 of HCV infectivity",~5 µg/mL
same,activity in the HCV assay in vitro,[13]; Huh-7.5 host cells,significant activities in vitro
same,inhibitory effect on HCV infectivity,[13]; at 10 ng/µL,strong inhibitory effect
"C=C1CO[C@@H]2c3c(O)ccc(O)c3[C@H]3OC(=O)[C@@H]4CC[C@H]5[C@@H]1CC[C@@]25[C@@H]34 [Compound 9, Nematoctone]",IC50,[2],21 µg/mL
same,IC50,[3],18 µg/mL
same,MIC,[4],-
same,MIC,[5],-
same,MIC,[6],-
same,MIC,[7],-
same,MIC,"[8]; Yamadazyma tenuis, read-out: MIC",25 µg/mL
same,MIC,[9],-
same,MIC,[10],-
same,MIC,[11],-
same,MIC,[1],-

# From paper PMC6222660, “Antiviral 4-Hydroxypleurogrisein and Antimicrobial Pleurotin Derivatives from Cultures of the Nematophagous Basidiomycete Hohenbuehelia grisea” (Molecules : A Journal of Synthetic Chemistry and Natural …, 2018)
